The numbers were not newly measured in patent publication US5169665A, “Tris-hydroxymethyl alkane esters as low calorie fat mimetics” (Nabisco, Inc., priority 1990, dated 1992), which cites them from elsewhere.

One series deals with pancreatic lipase. The following applies: quoted from Minich, col. 4.
The conditions of series [1]: rats fed ad libitum, versus control animals on a normal diet.

Take `CCCCCCCC(=O)OCC(COC(=O)CCCCCCC)(COC(=O)CCCCCCC)COC(=O)CCCCCCC` [pentaerythritol tetracaprylate]: in the series on pancreatic lipase, the “hydrolysis by pancreatic lipase” value is reported as “not attacked, hydrolyzed, by the enzyme pancreatic lipase”. The food consumption entry in series [1] is recorded as “consumed more than control animals on a normal diet”.
